According to patent publication US6900181B2, “Pharmaceutical composition” (Renovo Limited, priority 1995, dated 2005):

What was measured:
[1] = biological target: M6P/IGF II (insulin-like growth factor II) receptor (Homo sapiens, UniProt P11717); test: ELISA-type assay using purified M6P/IGF II receptor; type: binding; conditions: initial results; compared with M6P
From the text: In addition to the animal studies an ELISA-type assay using purified M6P/IGF II (insulin-like growth factor II) receptor was developed to determine if these analogues of M6P bind to the M6P/IGF II receptor.

[2] = test system: linear full thickness incisions on the dorsal skin; test: Rat full thickness incisional wound healing and scarring model, intradermal injection to the wound margins; type: in vivo, Sprague Dawley rats; conditions: for effect on wound healing (histological analysis): 10, 20, 40 mM at wounding and daily for following seven days, compared with PBS controls; for immunocytochemical analysis (fibronectin staining, monocyte/macrophage profiles): vs PBS controls; for histological analysis: 40 days post wounding; for scarring / dermal architecture (histology): 80 days post wounding
Description: Adult male Sprague Dawley rats (200-250 g) were anaesthetised using equal parts halothane, nitrous oxide and oxygen. Four linear full thickness incisions, 1 cm in length to the depth of the panniculus carnosus were made on the dorsal skin, 1 cm from the midline and 5 and 8 cm from the base of the skull. The wounds were left unsutured to heal by secondary intention. Experimental treatments were administered by intradermal injection to the wound margins (50 μl down each wound margin). At selected time points animals were killed by chloroform overdose. Wounds were excised from the surrounding tissue and bisected. Half the wounds were rapidly frozen in OCT for cryosection and immunoctyochemistry and half fixed in formaldehyde for wax embedding and histology. Wax sections were routinely stained with haematoxylin and eosin, picrosirius red and Massons Lille trichrome, to display collagen fibre thickness, density and orientation to enable assessment of scar quality. […] A range of doses (10 mM, 20 mM and 40 mM) was studied for each sugar, with PBS (phosphate buffered saline) as a control. Treatments were administered at the time of wounding and each day for the following seven days. Two animals per dose were studied at each of the three time points (7, 40 and 80 days post wounding) for each compound. […]. […] Treatments were administered at the time of wounding and each day for the following two days. One animal per dose was studied at each of the two time points (7 and 80 days post wounding). Total n=4. […] Department of Pharmacy, University of Manchester. A single concentration (20 mM) of this compound was studied, with PBS as a control. The time of administration varied to the previous experiments. Animals were split into three groups and treated on day 0 alone, days 0, 2 and 4, or days 0 to 7 inclusive. Two animals per treatment regime were studied at each of the three time points (3, 7 and 80 days) Total n=18.

[3] = test system: wounds; test: Experimental work treating wounds with other sugars; type: in vivo; conditions: for effect on wound healing: compared with controls; for effect on scarring: in vivo
From the text: Galactose-6-phosphate and glycerol-3-phosphate have no effect upon either wound healing or scarring.

[4] = 7 days post wounding, 10, 20, 40 mM
[5] = 10, 20, 40 mM, F1P effect particularly at 40 mM

Chain of M6P/IGF II (insulin-like growth factor II) receptor (P11717 41-2491): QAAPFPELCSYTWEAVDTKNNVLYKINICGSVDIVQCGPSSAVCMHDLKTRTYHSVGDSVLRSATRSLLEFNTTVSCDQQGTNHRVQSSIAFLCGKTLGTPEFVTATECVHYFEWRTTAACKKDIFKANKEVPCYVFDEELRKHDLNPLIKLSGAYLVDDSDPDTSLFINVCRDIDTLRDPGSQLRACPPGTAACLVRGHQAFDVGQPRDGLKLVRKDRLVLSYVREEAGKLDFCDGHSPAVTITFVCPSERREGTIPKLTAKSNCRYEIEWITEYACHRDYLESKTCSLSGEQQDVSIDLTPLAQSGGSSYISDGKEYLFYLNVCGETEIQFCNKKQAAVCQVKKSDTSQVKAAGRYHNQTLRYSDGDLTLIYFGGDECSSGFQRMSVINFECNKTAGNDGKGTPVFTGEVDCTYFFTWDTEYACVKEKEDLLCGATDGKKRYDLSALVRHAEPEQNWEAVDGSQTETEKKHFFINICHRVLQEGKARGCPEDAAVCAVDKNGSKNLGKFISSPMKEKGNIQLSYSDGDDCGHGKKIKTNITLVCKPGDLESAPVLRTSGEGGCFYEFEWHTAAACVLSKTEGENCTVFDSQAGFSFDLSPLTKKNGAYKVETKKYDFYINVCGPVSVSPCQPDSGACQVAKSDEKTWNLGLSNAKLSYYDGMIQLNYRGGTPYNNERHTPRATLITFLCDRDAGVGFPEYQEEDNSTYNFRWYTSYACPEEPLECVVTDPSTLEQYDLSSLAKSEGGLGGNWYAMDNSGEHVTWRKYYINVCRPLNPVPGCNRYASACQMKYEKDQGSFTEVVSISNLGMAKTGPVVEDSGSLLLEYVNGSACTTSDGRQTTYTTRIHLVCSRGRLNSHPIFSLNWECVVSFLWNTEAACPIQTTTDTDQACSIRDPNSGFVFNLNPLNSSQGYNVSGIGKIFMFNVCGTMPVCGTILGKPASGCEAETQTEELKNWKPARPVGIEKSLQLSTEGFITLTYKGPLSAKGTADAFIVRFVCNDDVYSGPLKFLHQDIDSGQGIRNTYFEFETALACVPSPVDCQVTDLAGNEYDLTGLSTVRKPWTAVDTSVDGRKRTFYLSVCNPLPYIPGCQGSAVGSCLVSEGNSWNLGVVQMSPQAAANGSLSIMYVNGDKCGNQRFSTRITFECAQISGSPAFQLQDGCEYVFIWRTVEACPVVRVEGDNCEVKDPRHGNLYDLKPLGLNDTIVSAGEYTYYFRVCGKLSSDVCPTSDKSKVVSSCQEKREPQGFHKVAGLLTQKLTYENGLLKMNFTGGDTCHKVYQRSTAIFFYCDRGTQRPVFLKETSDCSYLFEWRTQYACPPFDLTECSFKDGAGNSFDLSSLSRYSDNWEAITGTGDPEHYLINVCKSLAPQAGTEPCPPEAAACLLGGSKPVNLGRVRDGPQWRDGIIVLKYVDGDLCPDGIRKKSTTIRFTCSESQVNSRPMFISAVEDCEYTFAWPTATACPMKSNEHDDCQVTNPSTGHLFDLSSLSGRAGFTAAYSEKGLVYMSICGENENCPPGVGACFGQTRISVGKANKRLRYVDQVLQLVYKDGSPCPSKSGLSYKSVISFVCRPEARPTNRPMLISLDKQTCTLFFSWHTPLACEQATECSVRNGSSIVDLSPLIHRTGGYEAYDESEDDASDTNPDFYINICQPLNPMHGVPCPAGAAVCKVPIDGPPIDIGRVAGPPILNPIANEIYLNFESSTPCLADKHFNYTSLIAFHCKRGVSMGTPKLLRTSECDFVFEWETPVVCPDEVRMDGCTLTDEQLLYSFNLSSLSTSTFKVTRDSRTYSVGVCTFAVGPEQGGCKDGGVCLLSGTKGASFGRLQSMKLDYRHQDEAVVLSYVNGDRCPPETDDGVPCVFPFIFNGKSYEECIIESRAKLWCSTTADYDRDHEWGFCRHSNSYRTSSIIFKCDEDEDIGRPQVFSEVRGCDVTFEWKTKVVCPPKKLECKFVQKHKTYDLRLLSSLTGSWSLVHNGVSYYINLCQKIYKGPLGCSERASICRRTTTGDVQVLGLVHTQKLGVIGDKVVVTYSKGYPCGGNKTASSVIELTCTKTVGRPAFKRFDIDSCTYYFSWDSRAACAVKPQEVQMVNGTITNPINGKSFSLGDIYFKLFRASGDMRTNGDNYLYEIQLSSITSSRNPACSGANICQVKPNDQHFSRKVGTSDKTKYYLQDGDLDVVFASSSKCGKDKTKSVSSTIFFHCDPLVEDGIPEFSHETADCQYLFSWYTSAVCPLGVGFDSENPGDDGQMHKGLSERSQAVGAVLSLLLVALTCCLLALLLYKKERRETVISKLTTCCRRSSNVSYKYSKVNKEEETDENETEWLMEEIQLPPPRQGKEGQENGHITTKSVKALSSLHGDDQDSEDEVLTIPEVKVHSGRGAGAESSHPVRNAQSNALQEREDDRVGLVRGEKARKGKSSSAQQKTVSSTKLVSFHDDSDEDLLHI

| Structure (SMILES) | effect on wound healing (histological analysis) ([2]; 7 days post wounding) | immunocytochemical analysis (fibronectin staining, monocyte/macrophage profiles) [2, 4] | histological analysis ([2]; 10, 20, 40 mM) | scarring / dermal architecture (histology) [2, 5] | effect on wound healing [3] | effect on scarring [3] | other results |
| --- | --- | --- | --- | --- | --- | --- | --- |
| O=P(O)(O)O[C@H]1O[C@H](CO)[C@@H](O[C@H]2O[C@H](CO)[C@@H](O)[C@H](O)[C@H]2O)[C@H](O)[C@H]1O [Malt1P, maltose-1-phosphate] | neither F1P or Malt1P had any effect on wound healing | treated wounds resembled controls | inconsistent, with no clear trend | improve the dermal architecture very slightly | – | – | binding to the M6P/IGF II receptor [1]: does not bind |
| O=C[C@@H](O)[C@@H](O)[C@H](O)[C@H](O)COP(=O)(O)O [M6P, mannose-6-phosphate] | – | – | – | – | – | – | histological analysis of treated wounds vs PBS controls ([2]; 7 days post wounding, 10 or 20 mM, or 10 mM + 10 mM M6P, at wounding and each day for following two days): none of the treated wounds appeared different to PBS controls; scarring / dermal architecture (histology) ([2]; 10 or 20 mM, or 10 mM + 10 mM M6P, at wounding and each day for following two days, vs controls): improvement in scarring |
| O=C(COP(=O)(O)O)[C@@H](O)[C@H](O)[C@H](O)CO [F1P, fructose-1-phosphate] | neither F1P or Malt1P had any effect on wound healing | treated wounds resembled controls | inconsistent, with no clear trend | reduce scarring more significantly | – | – | – |
| O=P(O)(O)OCC(O)CO (stereo not drawn) [glycerol-3-phosphate] | – | – | – | – | no effect | no effect | – |
| O=C[C@H](O)[C@@H](O)[C@@H](O)[C@H](O)COP(=O)(O)O [Galactose-6-phosphate] | – | – | – | – | no effect | no effect | – |
